Assay results from US20250228861A1, “Cancer Treatments Using MTA-Cooperative PRMT5 Inhibitors” (AMGEN INC., priority 2022, published 2025).
Entries after “also recorded” stand apart in the source; their conditions may differ.

Assays:
H292 NSCLC xenografts = experiment: H292 NSCLC xenografts, combination with chemotherapy; format: in vivo, mice
[1] = test system: HAP1- and HCT116 MTAP-null cells; experiment: 6-day CellTiter-Glo viability in MTAP-null cells; format: cell-based; conditions: 144 h, 6 days, read-out: proliferation, IC50
Description: (§1) FIG. 1. […] Viability was measured by CellTiter-Glo and cooperativity was determined as follows: Cooperativity=WT IC50/MTAP-null IC50.
Plated cells were at optimized cell density in 96-well black walled, clear bottom tissue culture plates in 90 μL of growth media. Cells were incubated at room temperature for 30 minutes prior to placing in incubator at 37° C. and 5% CO2 overnight. […] Secondary compound dilutions (1:100) in media were done in the 96-well V-Bottom plate by adding 3 μL of the primary dilution to 297 μL of culture media. Finally, 10 μL from the secondary compound dilutions were added to cells in triplicate (1:10 dilution; final DMSO concentration 0.1%). Once addition was complete, plates were incubated at 37° C. and 5% CO2. […] Percent of Control (POC) values were calculated as follows: POC=100*(Treatment/Vehicle). Mean POC values were then calculated for each treatment condition and used to fit dose response curves applying a four parameter logistic curve in GraphPad Prism 7.

H292 cells [2] = experiment: Combination with paclitaxel, CellTiter-Glo viability, Fa and CalcuSyn CI; format: cell-based; conditions: 6 days;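 note: fa derived from raw luminescence, CI computed in CalcuSyn from drug concentrations and Fa, with CI under 0.9 indicating synergism and 0.9 to 1.1 nearly additive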
Description: (§2) Cell viability was measured by the CellTiter-Glo Luminescence assay. Raw luminescent values were converted to fraction affected (Fa) with the following equation:
(§3) Synergy analysis was performed using the CalcuSyn software to determine CI scores based on the drug concentrations used and corresponding Fa values.

MIAPACA2T2 cells [3] = experiment: Combination with carboplatin, CellTiter-Glo viability, Fa and CalcuSyn CI; format: cell-based; conditions: 6 days
Description: as §2, §3

[4] = test system: HAP1- and HCT116 MTAP-null cells; experiment: Global SDMA levels (ELISA / in-cell imaging) in MTAP-null cells; format: cell-based; conditions: HAP1 ELISA 3 days, HCT116 in-cell imaging 4 days
Description: as §1
HAP1 WT and MTAP-null global SDMA levels were assessed by an ELISA assay after 3 days treatment.
HCT116 WT and MTAP-null global SDMA levels were assessed by an in-cell imaging assay after 4 days treatment.

PSN1 cells = experiment: Combination with irinotecan, CellTiter-Glo viability, Fa and CalcuSyn CI; format: cell-based; conditions: 6 days
Description: as §2, §3

MIAPACA2T2 cells [5] = experiment: Combination with gemcitabine, CellTiter-Glo viability, Fa and CalcuSyn CI; format: cell-based; conditions: 6 days
Description: as §2, §3

A549 cells [6] = experiment: Combination with pemetrexed, CellTiter-Glo viability, Fa and CalcuSyn CI; conditions: 6 days;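 note: fa derived from raw CellTiter-Glo luminescence, CI computed by CalcuSyn from drug concentrations and Fa, with values below 0.9 meaning synergism and 0.9–1.1 nearly additive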
Description: as §2, §3

H292 cells [7] = experiment: as above; conditions: 6 days
Description: as §2, §3

A549 cells [8] = experiment: Combination with paclitaxel, CellTiter-Glo viability, Fa and CalcuSyn CI; format: cell-based; conditions: 6 days;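 note: luminescent viability signal converted to fraction affected (Fa), and Fa with drug concentrations gives the CalcuSyn CI, where 0.9–1.1 is nearly additive and lower CI means stronger synergism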
Description: as §2, §3

MIAPACA2T2 cells [9] = experiment: Combination with irinotecan, CellTiter-Glo viability, Fa and CalcuSyn CI; format: cell-based; conditions: 6 days
Description: as §2, §3

[10] = Compound B 0.2916 μM fixed + Paclitaxel 0.0005 μM
[11] = Compound B 0.2916 μM fixed + Paclitaxel 0.0007 μM
[12] = Compound B 0.2916 μM fixed + Paclitaxel 0.0009 μM
[13] = Compound B 0.2916 μM fixed + Paclitaxel 0.0011 μM
[14] = Compound B 0.2916 μM fixed + Paclitaxel 0.0015 μM
[15] = Compound B 0.2916 μM fixed + Paclitaxel 0.0019 μM
[16] = Compound B 0.2916 μM fixed + Paclitaxel 0.0025 μM
[17] = Compound B 0.2916 μM fixed + Gemcitabine 0.002045 μM
[18] = Compound B 0.1535 μM fixed + Pemetrexed 0.131687 μM
[19] = Compound B 0.1535 μM fixed + Pemetrexed 0.197531 μM
[20] = Compound B 0.1535 μM fixed + Pemetrexed 0.296296 μM
[21] = Compound B 0.1535 μM fixed + Pemetrexed 0.444444 μM
[22] = Compound B 0.1535 μM fixed + Pemetrexed 0.666667 μM
[23] = Compound B 0.1535 μM fixed + Pemetrexed 1 μM
[24] = Compound B 0.1535 μM fixed + Pemetrexed 1.5 μM
[25] = Compound B 0.1535 μM fixed + Paclitaxel 0.0005 μM
[26] = Compound B 0.1535 μM fixed + Paclitaxel 0.0007 μM
[27] = Compound B 0.1535 μM fixed + Paclitaxel 0.0009 μM
[28] = Compound B 0.1535 μM fixed + Paclitaxel 0.0011 μM
[29] = Compound B 0.1535 μM fixed + Paclitaxel 0.0015 μM
[30] = Compound B 0.1535 μM fixed + Paclitaxel 0.0019 μM
[31] = Compound B 0.1535 μM fixed + Paclitaxel 0.0025 μM

Cc1cc2cc(C(=O)N(Cc3ccc(C(F)(F)F)cn3)[C@@H](C)c3ncccn3)ccc2nc1N [Compound B]
anti-tumor activity of combination with paclitaxel (H292 NSCLC xenografts; 100 mg/kg orally once daily + paclitaxel 20 mg/kg IP): significant anti-tumor activity versus either single agent alone; also recorded: significant anti-tumor activity versus paclitaxel or carboplatin alone
anti-tumor activity of combination with carboplatin (H292 NSCLC xenografts; orally once daily + carboplatin 60 mg/kg IP 1×/week): significant anti-tumor activity versus paclitaxel or carboplatin alone
IC50 [1]: 27 nM
Combination Fa (H292 cells [2]; [10]): 0.7127
Computed CI value (H292 cells [2]; [10]): 0.84
Combination Fa (H292 cells [2]; [11]): 0.7796
Computed CI value (H292 cells [2]; [11]): 0.758
Combination Fa (H292 cells [2]; [12]): 0.8302
Computed CI value (H292 cells [2]; [12]): 0.757
Combination Fa (H292 cells [2]; [13]): 0.8932
Computed CI value (H292 cells [2]; [13]): 0.724
Combination Fa (H292 cells [2]; [14]): 0.9425
Computed CI value (H292 cells [2]; [14]): 0.697
Combination Fa (H292 cells [2]; [15]): 0.9568
Computed CI value (H292 cells [2]; [15]): 0.8
Combination Fa (H292 cells [2]; [16]): 0.9674
Computed CI value (H292 cells [2]; [16]): 0.928
Combination Fa (MIAPACA2T2 cells [3]; Compound B 0.4374 μM fixed + Carboplatin 2.47793 μM): 0.653
Computed CI value (MIAPACA2T2 cells [3]; Compound B 0.4374 μM fixed + Carboplatin 11.1111 μM): 0.269
IC50 [4]: 0.2 nM
Computed CI value (PSN1 cells; Compound B 0.0202 μM fixed + Irinotecan 0.088889 μM): 0.806
Computed CI value (PSN1 cells; Compound B 0.0202 μM fixed + Irinotecan 0.133333 μM): 0.8
Computed CI value (PSN1 cells; Compound B 0.0202 μM fixed + Irinotecan 0.2 μM): 0.8
Combination Fa (MIAPACA2T2 cells [5]; Compound B 0.2916 μM fixed + Gemcitabine 0.001461 μM): 0.567
Combination Fa (MIAPACA2T2 cells [5]; [17]): 0.514
Computed CI value (MIAPACA2T2 cells [5]; [17]): 1.006
Computed CI value (MIAPACA2T2 cells [5]; Compound B 0.2916 μM fixed + Gemcitabine 0.002863 μM): 0.823
Computed CI value (MIAPACA2T2 cells [5]; Compound B 0.2916 μM fixed + Gemcitabine 0.004009 μM): 0.866
Computed CI value (MIAPACA2T2 cells [5]; Compound B 0.2916 μM fixed + Gemcitabine 0.005612 μM): 0.843
Computed CI value (MIAPACA2T2 cells [5]; Compound B 0.2916 μM fixed + Gemcitabine 0.007857 μM): 0.895
Computed CI value (MIAPACA2T2 cells [5]; Compound B 0.2916 μM fixed + Gemcitabine 0.011 μM): 1.007
Combination Fa (A549 cells [6]; Compound B 0.1535 μM fixed + Pemetrexed 0.087792 μM): 0.6401
Combination Fa (A549 cells [6]; [18]): 0.6629
Computed CI value (A549 cells [6]; [18]): 0.936
Combination Fa (A549 cells [6]; [19]): 0.6484
Computed CI value (A549 cells [6]; [19]): 1.172
Combination Fa (A549 cells [6]; [20]): 0.6761
Computed CI value (A549 cells [6]; [20]): 1.033
Combination Fa (A549 cells [6]; [21]): 0.7384
Computed CI value (A549 cells [6]; [21]): 0.639
Combination Fa (A549 cells [6]; [22]): 0.8303
Computed CI value (A549 cells [6]; [22]): 0.235
Combination Fa (A549 cells [6]; [23]): 0.8717
Computed CI value (A549 cells [6]; [23]): 0.139
Combination Fa (H292 cells [7]; [18]): 0.6769
Computed CI value (H292 cells [7]; [18]): 0.73
Combination Fa (H292 cells [7]; [19]): 0.7032
Computed CI value (H292 cells [7]; [19]): 0.587
Combination Fa (H292 cells [7]; [20]): 0.7484
Computed CI value (H292 cells [7]; [20]): 0.401
Combination Fa (H292 cells [7]; [21]): 0.7887
Computed CI value (H292 cells [7]; [21]): 0.309
Combination Fa (H292 cells [7]; [22]): 0.8438
Computed CI value (H292 cells [7]; [22]): 0.215
Combination Fa (H292 cells [7]; [23]): 0.8703
Computed CI value (H292 cells [7]; [23]): 0.216
Combination Fa (H292 cells [7]; [24]): 0.8508
Computed CI value (H292 cells [7]; [24]): 0.385
Combination Fa (A549 cells [8]; [25]): 0.7030
Computed CI value (A549 cells [8]; [25]): 0.545
Combination Fa (A549 cells [8]; [26]): 0.7177
Computed CI value (A549 cells [8]; [26]): 0.64
Combination Fa (A549 cells [8]; [27]): 0.7578
Computed CI value (A549 cells [8]; [27]): 0.716
Combination Fa (A549 cells [8]; [28]): 0.8365
Computed CI value (A549 cells [8]; [28]): 0.745
Combination Fa (A549 cells [8]; [29]): 0.9023
Computed CI value (A549 cells [8]; [29]): 0.786
Combination Fa (A549 cells [8]; [30]): 0.9387
Computed CI value (A549 cells [8]; [30]): 0.867
Combination Fa (A549 cells [8]; [31]): 0.9692
Computed CI value (A549 cells [8]; [31]): 0.898
Computed CI value (MIAPACA2T2 cells [9]; Compound B 0.4374 μM fixed + Irinotecan 0.256 μM): 0.602
Computed CI value (MIAPACA2T2 cells [9]; Compound B 0.4374 μM fixed + Irinotecan […]): 0.647
